Measurements taken from patent US12414952B2 (Merck Sharp & Dohme LLC, priority 2018, dated 2025).
pIC50: −log10 of the molar value.

Biological target: T1, human A2a adenosine receptor (Homo sapiens (Human), UniProt P29274)
Assay: A2a binding affinity using radioligand binding, Method (A)
Details: Method (A): [3H]SCH58261 filtration binding
Procedure, shortened: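 Membranes from HEK293 or CHO cells expressing human A2a were preincubated with compound for 15–30 min at room temperature. [3H]SCH58261 was then added (4 nM working dilution) in 50 mM Tris pH 7.4, 10 mM MgCl2, 0.005% Tween20 for 60 min at room temperature. Bound radioactivity after filtration was normalised to total and non-specific binding, and IC50 came from 4-parameter logistic fits.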

T1 sequence (P29274 whole entry): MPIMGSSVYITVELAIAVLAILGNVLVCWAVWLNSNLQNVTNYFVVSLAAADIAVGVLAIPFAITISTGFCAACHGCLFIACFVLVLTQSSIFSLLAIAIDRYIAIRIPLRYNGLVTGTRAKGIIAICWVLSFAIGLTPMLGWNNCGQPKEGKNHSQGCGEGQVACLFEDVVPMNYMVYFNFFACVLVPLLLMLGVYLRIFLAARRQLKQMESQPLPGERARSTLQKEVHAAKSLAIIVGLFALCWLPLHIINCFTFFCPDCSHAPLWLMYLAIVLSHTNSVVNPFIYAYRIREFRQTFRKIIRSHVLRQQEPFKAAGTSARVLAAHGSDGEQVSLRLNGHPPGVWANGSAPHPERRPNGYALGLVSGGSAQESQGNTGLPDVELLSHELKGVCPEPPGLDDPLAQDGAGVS

pIC50 | Structure (SMILES)
9.05 | CC(C)n1nnc2c1CCN(CCc1nc3c(C(F)(F)F)c(-c4cccc(F)c4)nc(N)n3n1)C2 [Example 23.7, 7-(3-fluorophenyl)-2-(2-(1-isopropyl-1,4,6,7-tetrahydro-5H-[1,2,3]triazolo[4,5-c]pyridin-5-yl)ethyl)-8-(trifluoromethyl)-[1,2,4]triazolo[1,5-c]pyrimidin-5-amine]

Biological target: human A2b adenosine receptor (Homo sapiens (Human), UniProt P29275)
Assay: A2b binding affinity, radioligand filtration binding assay
Details: tritiated proprietary A2b antagonist, HEK293 membranes
Procedure, shortened: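 Membranes from HEK293 cells recombinantly expressing human A2b were incubated with a tritiated proprietary A2b antagonist, with and without compound. Filter-bound radioactivity was counted by scintillation. Percent effect was normalized to total and non-specific binding, and IC50 came from a 4-parameter logistic fit.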

Chain of human A2b adenosine receptor (P29275 whole entry): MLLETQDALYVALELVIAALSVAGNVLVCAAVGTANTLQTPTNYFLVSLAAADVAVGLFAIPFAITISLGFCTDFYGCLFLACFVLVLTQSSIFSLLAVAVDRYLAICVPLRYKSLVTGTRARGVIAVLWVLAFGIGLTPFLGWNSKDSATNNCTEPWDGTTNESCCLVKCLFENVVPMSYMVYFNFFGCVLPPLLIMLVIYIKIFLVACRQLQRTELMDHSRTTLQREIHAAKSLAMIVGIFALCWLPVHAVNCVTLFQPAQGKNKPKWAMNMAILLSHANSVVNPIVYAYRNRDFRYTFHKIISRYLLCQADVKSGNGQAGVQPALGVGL

pIC50 | Structure (SMILES)
7.28 | CC(C)n1nnc2c1CCN(CCc1nc3c(C(F)(F)F)c(-c4cccc(F)c4)nc(N)n3n1)C2 [Example 23.7, 7-(3-fluorophenyl)-2-(2-(1-isopropyl-1,4,6,7-tetrahydro-5H-[1,2,3]triazolo[4,5-c]pyridin-5-yl)ethyl)-8-(trifluoromethyl)-[1,2,4]triazolo[1,5-c]pyrimidin-5-amine]

Biological target: T1, human A2a adenosine receptor
Assay: A2a binding affinity using an alternative radioligand binding assay, Method (C)
Details: Method (C): [3H]CGS21680, CHO.A2a membranes
Excerpt: (§1) The A2a receptor affinity binding assay measured the amount of binding of a tritiated ligand with high affinity for the A2a adenosine receptor to membranes made from HEK293 or CHO cells recombinantly expressing the human A2a adenosine receptor, in the presence of varying concentrations of a compound of the invention. The data were generated using either filtration binding or a homogenous scintillation proximity assay (SPA).
Method (C): Measurement of A2a Binding Affinity Using an Alternative Radioligand Binding Assay
Membranes used in this procedure were made by washing cell cultures twice with DPBS buffer (Dulbecco's phosphate buffered saline without calcium and magnesium, ThermoFisher Scientific, Cat. No. A1285601), and harvesting the cell cultures by mechanical scraping. The cells were collected by centrifugation and re-suspended in 10 mM HEPES, pH 7.4 containing 0.1 mM benzamidine (Sigma, Cat. No. B6506) and 0.1 mM PMSF (phenylmethylsulfonyl fluoride, Sigma, Cat. No. 10837091001). Cells were freeze-thawed twice in a dry ice/ethanol bath and homogenized with 25 to 30 strokes in a glass dounce homogenizer (Wheaton, Cat. No. 357546). Membranes were pelleted at 40,000×g for 20 min at 4° C. and re-suspended in assay buffer (5 mM HEPES, pH 7.4, 5 mM MgCl2; supplemented with 0.1 mM benzamidine) at a protein concentration of 2.6 mg/mL. Protein concentration was determined by the Bio-Rad method (Bio-Rad, Cat. No. 5000002). Membranes were then incubated with adenosine deaminase (final concentration 2U/mL) for 20 min at 37° C. before use in the binding assay.
To perform the binding assay, 50 μg CHO.A2a membranes, 5 nM [^3H]CGS21680 (Perkin Elmer, Cat. No. NET1021), and 1 μL of test compound were combined in individual tubes to a volume of 100 μL. To define total and non-specific binding, wells containing 1% DMSO and 20 μM N-ethylcarboxamidoadenosine (Tocris Bioscience, Cat. No. 1691) respectively, were also included. The samples were incubated for 2 h at 37° C. The samples were filtered rapidly through a glass fiber filter using a cell harvester and washed with cold buffer (10 mM Tris, pH7.4, 5 mM MgCl2). The filter was allowed to dry and individual filters were placed into vials together with liquid scintillant and subjected to scintillation counting. After normalization to total and non-specific binding, the percent effect at each compound concentration was calculated. The plot of percent effect versus the log of compound concentration was analyzed electronically using a 4-parameter logistic fit based on the Levenberg-Marquardt algorithm to generate IC50 values.

pIC50 | Structure (SMILES)
6.18 | COc1ccccc1-c1cc2nc(CCN3CC(F)(F)C3)nn2c(N)n1 [Example 2.18]
6.41 | COc1cccc(-c2cc3nc(CCN4CC(F)(F)C4)nn3c(N)n2)c1 [Example 2.19]
6.62 | Nc1nc(-c2ccccc2F)cc2nc(CCN3CC(F)(F)C3)nn12 [Example 2.20]
7.04 | Nc1nc(-c2cccc(F)c2)cc2nc(CCN3CC(F)(F)C3)nn12 [Example 2.21]
6.56 | Nc1nc(-c2ccc(F)cc2)cc2nc(CCN3CC(F)(F)C3)nn12 [Example 2.22]
6.83 | Nc1nc(-c2ccccc2)cc2nc(CCN3CC(F)(F)C3)nn12 [Example 2.23]

Biological target: T1, human A2a adenosine receptor
Assay: A2a receptor affinity binding assay, method not indicated
Details: method letter not given
Excerpt: Method (A) describes the procedure used to measure A2a binding affinity using radioligand binding. Method (B) describes the procedure used to measure A2a binding affinity using SPA technology. Method (C) describes an alternative procedure used to measure A2a binding affinity using radioligand binding. The method used to measure A2b binding affinity is also described below. The method used to determine the A2a IC50 value reported for each compound in the table is indicated next to the reported value. The A2b IC50 value measured using the A2b binding affinity assay is shown in the table next to the compound under the corresponding A2a value.
as §1

pIC50 | Structure (SMILES)
6.46 | Cc1c(-c2ccc(F)cc2)nc(N)c2nc(CCN3CCn4c(cnc4C(C)C)C3)nn12 [Example 18.6, 6-(4-fluorophenyl)-2-(2-(3-isopropyl-5,6-dihydroimidazo[1,5-a]pyrazin-7(8H)-yl)ethyl)-5-methyl-[1,2,4] triazolo[1,5-a]pyrazin-8-amine]

Biological target: T1, human A2a adenosine receptor
Assay: A2a binding affinity using SPA, Method (B)
Details: Method (B): [3H]SCH58261 SPA
Excerpt: as §1
Method (B): Measurement of A2a Binding Affinity Using SPA
Binding affinity using SPA was conducted as follows. Test compounds (50 nL) were dispensed into individual wells of a 384-well OptiPlate™ well (Perkin Elmer) by Echo® acoustic liquid transfer (Labcyte). 20 μL of 1.25 nM [^3H] SCH58261 ((7-(2-phenylethyl)-5-amino-2-(2-furyl)-pyrazolo-[4,3-e]-1,2,4-triazolo[1,5-c]pyrimidine)) in DPBS assay buffer (Dulbecco's phosphate buffered saline without calcium and magnesium, ThermoFisher Scientific, Cat. No. A1285601) supplemented with 10 mM MgCl2 was added. A2a receptor-expressing membranes were incubated with 20 μg/mL adenosine deaminase (Roche, Cat. No. 10 102 105 001) for 15 min at room temperature. The receptor-expressing membranes were then combined with wheat germ agglutinin-coated yttrium silicate SPA beads (GE Healthcare, Cat. No. RPNQ0023) in a ratio of 1:1000 (w/w) and incubated for 30 min at room temperature. 30 μL of the membrane/bead mixture (0.25 μg and 25 μg per well respectively) were added to the 384-well OptiPlate™ well. To define total and non-specific binding, wells containing 1% DMSO or 1 μM CGS15943 (Tocris Bioscience, Cat. No. 1699) respectively were also included in the experiment. The plate was incubated for one h at room temperature with agitation. The assay plate was then incubated for an h to allow the beads to settle before data were collected using a TopCount® (Perkin Elmer) scintillation counter. After normalization to total and non-specific binding, the percent effect at each compound concentration was calculated. The plot of percent effect versus the log of compound concentration was analyzed electronically using a 4-parameter logistic fit based on the Levenberg-Marquardt algorithm to generate IC50 values.

pIC50 | Structure (SMILES)
8.62 | Cc1nc2c(s1)CN(CCc1nc3c(C)c(-c4ncco4)nc(N)n3n1)CC2 [Example 1.8]
8.18 | Cc1nc2c(s1)CN(CCc1nc3c(C)c(-c4cnco4)nc(N)n3n1)CC2 [Example 2.26]
8.33 | Cc1c(-c2ncco2)nc(N)n2nc(Cc3cc[nH]n3)nc12 [Example 7.5, 2-((1H-pyrazol-3-yl)methyl)-8-methyl-7-(oxazol-2-yl)-[1,2,4]triazolo[1,5-c]pyrimidin-5-amine]
9.15 | Cc1c(-c2ncco2)nc(N)n2nc(Cc3ccccn3)nc12 [Example 9.6, 8-methyl-7-(oxazol-2-yl)-2-(pyridin-2-ylmethyl)-[1,2,4]triazolo[1,5-c]pyrimidin-5-amine]
9.30 | Cc1cccc(Cc2nc3c(C)c(-c4ncco4)nc(N)n3n2)n1 [Example 9.7, 8-methyl-2-((6-methylpyridin-2-yl)methyl)-7-(oxazol-2-yl)-[1,2,4]triazolo[1,5-c]pyrimidin-5-amine]
9.22 | Cc1cccnc1Cc1nc2c(C)c(-c3ncco3)nc(N)n2n1 [Example 9.8, 8-methyl-2-((3-methylpyridin-2-yl)methyl)-7-(oxazol-2-yl)-[1,2,4]triazolo[1,5-c]pyrimidin-5-amine]
